Among the data in US4076816A, “Antibiotic mixture” (priority 1974, dated 1978) are MIC values, retold here.

Where a name gives a salt, the structure may show the parent alone.

Holding throughout (format): cell-based
For assay [1], the system named is Haemophilus influenzae. As to the kind of experiment: combined activity in vitro, serial dilutions in chocolate agar plates arranged in form of a chess board, MIC. To be noted: compound alone. As for the experimental part:
Combined activity of FL 1060 and trimethoprim against Haemophilus influenzae in vitro. Serial dilutions of FL 1060 and trimethoprim were performed in "chocolate agar"^x) plates arranged in form of a chess board. Inoculum: 3.5 μl drops containing about 10^7 cells/ml. Incubation: overnight at 36° C. ^x) Caseinhydrolysate (pancreatic) 1.3%, dextrose 0.085%, sodium chloride 0.21%, 1-cystine 0.004%, agar (Oxoid No. 1) 0.6% in distilled water, pH 7.1 after autoclaving, horse blood (defibriated) 5%, yeast extract (Difco) 1.3% (membrane filtered) added at 80° C.

The test system of assay [2] is Escherichia coli (Leo HA2). As to the kind of experiment: serial dilution test (technique of Example 1), medium with addition of 10 g of sodium chloride per liter, MIC. Conditions: medium + 10 g sodium chloride per liter, compound alone. As for the experimental part:
(§1) A fluid medium containing:
(§2) and containing the appropriate concentrations of the compounds, or of the combinations of them was inoculated with 10^6 cells/ml organisms and incubated over night at 37° C. Minimum inhibitory concentrations (MIC) were taken as the lowest concentrations of either of the compounds alone or of a combination of both at which no visible growth occurred.

The test system of assay [3] is Klebsiella pneumoniae (Leo HE). The description is as above. To be noted: medium + 10 g sodium chloride per liter, compound alone. As to the method:
as §1, §2

Assay [4] deals with Salmonella typhimurium (Leo HL2). Described as above. To be noted: Salmonella enterica, medium + 10 g sodium chloride per liter, compound alone. As to the method:
as §1, §2

Assay [5] concerns Escherichia coli (strain Leo HA2). Put plainly: in vitro serial dilution test, minimum inhibitory concentration. To be noted: 10^6 cells/ml, over night at 37° C, compound alone. As to the method: The in vitro activity of FL 1060, trimethoprim, and combinations of the two compounds against Escherichia coli (strain Leo HA2) was determined in a serial dilution test. […] Minimum inhibitory concentrations (MIC) were taken as the lowest concentrations of either of the compounds alone or of a combination of both at which no visible growth occurred.

[6] abbreviates: strain IX14, overnight at 36° C.
Where [7] appears, read: strain IX15, overnight at 36° C.

Turning to `CC1(C)S[C@@H]2[C@H](N=CN3CCCCCC3)C(=O)N2[C@H]1C(=O)O` [FL 1060, 6-[(hexahydro-1H-azepin-1-yl)-methyleneamino]-penicillanic acid, hydrochloride, dihydrate], the MIC was greater than 100 µg/mL in assay [1] (strain IX5, overnight at 36° C); greater than 100 µg/mL in assay [1] (strain IX6, overnight at 36° C); greater than 100 µg/mL in assay [1] (setting [6]); greater than 100 µg/mL in assay [1] (setting [7]); 50 µg/mL in assay [2]; 0.5 µg/mL in assay [3]. The results for the MIC in assay [4] and in assay [5] were greater than 100 µg/mL and 0.016 µg/mL, respectively.
`COc1cc(Cc2cnc(N)nc2N)cc(OC)c1OC` [Trimethoprim, 2,4-diamino-5(3,4,5-trimethoxybenzyl)-pyrimidine]: the MIC in assay [1] (strain IX5, overnight at 36° C) is 1 µg/mL; in assay [1] (strain IX6, overnight at 36° C), 3.2 µg/mL; in assay [1] (setting [6]), greater than 100 µg/mL; in assay [1] (setting [7]) it was greater than 100 µg/mL; in assay [2], greater than 50 µg/mL; in assay [3] it was 1.6 µg/mL. In addition, the values for the MIC in assay [4] and in assay [5] were greater than 100 µg/mL and 100 µg/mL, respectively.
